Assay results published in patent US10968214B2, “KRas G12C inhibitors” (Eli Lilly and Company, priority 2018, dated 2021).
Values joined by “and” are separate entries in the source; they are usually repeats but may differ in a detail not shown here. Equal entries are not always repeated. Where two headings read alike, the source gives them in different places.

Tests used:
[1] = tested on: pMEK in H2122 xenograft tumors; assay: In vivo target inhibition/PD, H2122 xenograft, pMEK; conditions: Mus musculus, NCI-H2122; for inhibition at 10 mg/kg: 10 mg/kg single dose
Protocol: To evaluate in vivo target inhibition and anti-tumor efficacy of a compound, Human lung cancer cells, H358 or H2122 are implanted into nude mice xenograft tumor models. Either H358 or H2122 cells (10×10^6 in a 1:1 Matrigel® mix, 0.2 mL total volume) are implanted by subcutaneous injection in hind leg of nude female mice (Harlan Laboratories). A total of 5 mice each group are used for efficacy study, and a total of 3-4 mice each group are used for target engagement and PD study. Treatment is initiated with oral administration (gavage) of a test compound or vehicle (20% Captisol®, 25 mM phosphate, pH 2.0 in 0.2 mL volume when the tumor size reaches approximately […]. Tumor growth and body weight are monitored over time to evaluate efficacy and signs of toxicity. Bidimensional measurements of tumors are performed twice a week and tumor volumes are calculated based on mid-axis length and mid-axis width. Tumor volume data are transformed to a log scale to equalize variance across time and treatment groups. The log volume data are analyzed with a two-way repeated measures analysis of variance by time and treatment using the mixed procedures in SAS software (version 8.2). The correlation model for the repeated measures is spatial power. Treated groups are compared to the control group at each time point. The mixed procedure is also used separately for each treatment group to calculate adjusted means and standard errors at each time point. Both analyses account for the autocorrelation within each animal. The adjusted means and standard errors are plotted for each treatment group versus time.
For in vivo target inhibition and PD analysis, tumors are ground by mortar and pestle on dry ice and tumor fragments are added to 800 μL of lysis buffer containing 1% Triton X100, 25 mM Tris pH 7.5, 150 mM NaCl, 1 mM EDTA, and 1 mM EGTA with Halt protease and phosphatase inhibitor cocktail (Thermo Scientific, cat. no. 1861281) in lysing matrix D tubes (MP Biomedical®, cat. no. 6913-500) with one additional large bead (MP Biomedical® ¼″ ceramic sphere bead cat. no. 6540-412) per tube. Tumor fragments are homogenized in a Thermo Bio101® fast prep (FP120) at setting 4 for […] while cold for a total of 2 times. Lysates are spun at 14,000 rpm for 10 min at 4° C. to clarify. Protein estimation is done on the lysate supernatant using a BioRad Dc® protein assay and lysates are diluted in complete lysis/binding buffer from the Ras GTPase Chemi ELISA Kit® (Active Motif, cat. no. 52097). The active KRas ELISA was performed as follows: Glutathione-coated ELISA wells were incubated with diluted RAF1-GST in complete lysis/binding buffer for 1 hr at 4° C. with gentle agitation. Wells are washed 3 times with wash buffer and 100 μg of lysates are added to each well and incubated at RT for 1 hr with mild agitation. The wells are washed an additional 3 times, then primary antibody, diluted in antibody binding buffer, is added to each well. The plates are incubated for 1 hr. The wells are washed 3 more times before adding HRP-conjugated secondary antibody, diluted in antibody binding buffer, to each well. The plates are incubated at RT for 1 hr. ELISA wells are washed 4 times, chemiluminescent reagents is added and then luminescence is read. For pERK Meso Scale Discovery ELISA, 25 μg of protein containing 0.1% SDS is used; for pMEK Meso Scale Discovery ELISA, 50 μg of protein without SDS is used. Meso Scale Discovery Whole Cell Lysate Kits for pERK and pMEK are provided by Meso Scale Discovery.
After a single dose, the tumor samples are harvested at different time points. The tumor lysates are prepared as described above. The inhibition of pERK, pMEK, and active KRas is measured as described above.

LU-99 = assay: CellTiterGlo Cell Proliferation Assay, LU-99; format: cell-based; conditions: Homo sapiens, KRas G12C, Lung, 96 hr
Protocol: (§1) A panel of tumor cell lines harboring KRas G12C or other KRas mutations are collected (Table 6). All cell lines are from ATCC or other sources indicated.
(§2) Typically cells are cultured in RPMI1640 or Dulbecco's modified Eagle's medium (DMEM, GIBCO) supplemented with 10% FBS (GIBCO, Invitrogen). For 2D culture cells (4×10^3/well) maintained in growth medium described above, are plated onto 96 well tissue culture plates Corning® Cat. 3603) a day before the treatment. For 3D culture 8000 cells/well are seeded onto 96 well ultra-low attachment tissue culture plates (Corning, #3474). The cells are treated compound for 96 hr, and then are analyzed for viability using the CellTiterGlo® Luminescent Cell Viability Assay® (Promega #G7572 for 2D and Promega #G9683 for 3D cultures) according to manufacturer's instructions and an EnVision™ plate reader. Nonlinear regression and sigmoidal dose-response curves are used to calculate the half maximal inhibitory concentration (IC50) with GraphPad Prism 4® software.

EL3187 (PDX) = assay: Anti-tumor growth activity, EL3187 lung PDX; format: in vivo; conditions: for Tumor Growth Inhibition (%) or Regression (−%): EL3187 (PDX) Lung, 28 Day, negative = regression
H23 = assay: CellTiterGlo Cell Proliferation Assay, H23; format: cell-based; conditions: Homo sapiens, NCI-H23, KRas G12C, Lung, 96 hr
Protocol: as §1, §2

SW1463 xenograft = assay: Anti-tumor growth activity, SW1463 colorectal xenograft; format: in vivo; conditions: for Tumor Growth Inhibition (%) or Regression (−%): 28 Day, negative = regression
H358 = assay: CellTiterGlo Cell Proliferation Assay, H358; format: cell-based; conditions: Homo sapiens, NCI-H358, KRas G12C, Lung, 96 hr
Protocol: as §1, §2

H460 = assay: CellTiterGlo Cell Proliferation Assay, H460; format: cell-based; conditions: Homo sapiens, NCI-H460, KRas Q61H, lung, 96 hr
Protocol: as §1, §2

H1373 xenograft = assay: Anti-tumor growth activity, H1373 lung xenograft; format: in vivo; conditions: 28 Day, negative = regression
[2] = read-out: IC50 (μM) in 2 D cell proliferation
[3] = read-out: IC50 (μM) in 3 D spheroid cell proliferation

Q: Which inhibition at 10 mg/kg ([1]; H2122 xenograft, 2 hr, read-out: % Inhibition pMEK) does the source give for `C=CC(=O)N1CCN(c2ncnc3c(F)c(-c4ccc(F)c5sc(N)nc45)c(Cl)cc23)CC1` [Example 1, 1-{4-[7-(2-Amino-7-fluoro-1,3-benzothiazol-4-yl)-6-chloro-8-fluoroquinazolin-4-yl]piperazin-1-yl}prop-2-en-1-one] here?
A: Its inhibition at 10 mg/kg is 45.9%.

Q: And the inhibition at 10 mg/kg ([1]; H2122 xenograft, 4 hr, read-out: % Inhibition pMEK)?
A: The inhibition at 10 mg/kg was 60.4%.

Q: And the inhibition at 10 mg/kg ([1]; H2122 xenograft, 8 hr, read-out: % Inhibition pMEK)?
A: Its inhibition at 10 mg/kg is 25.7%.

Q: What about the inhibition at 10 mg/kg ([1]; H2122 xenograft, 12 hr, read-out: % Inhibition pMEK) of the same molecule?
A: Its inhibition at 10 mg/kg is -0.4%.

Q: And the inhibition at 10 mg/kg ([1]; H2122 xenograft, 24 hr, read-out: % Inhibition pMEK)?
A: The inhibition at 10 mg/kg was -8.4%.

Q: And the inhibition at 10 mg/kg ([1]; H2122 xenograft, from 2-12 hr, read-out: pMEK inhibition)?
A: Its inhibition at 10 mg/kg is 0 to 60%.

Q: And the inhibition at 30 mg/kg ([1]; H2122 xenograft, 30 mg/kg single dose, 2 hr, read-out: % Inhibition pMEK)?
A: The inhibition at 30 mg/kg was 62.4%.

Q: What about the inhibition at 30 mg/kg ([1]; H2122 xenograft, 30 mg/kg single dose, 4 hr, read-out: % Inhibition pMEK) of the same molecule?
A: Its inhibition at 30 mg/kg is 77.5%.

Q: What about the inhibition at 30 mg/kg ([1]; H2122 xenograft, 30 mg/kg single dose, 8 hr, read-out: % Inhibition pMEK) of the same molecule?
A: Its inhibition at 30 mg/kg is 72.2%.

Q: And the inhibition at 30 mg/kg ([1]; H2122 xenograft, 30 mg/kg single dose, 12 hr, read-out: % Inhibition pMEK)?
A: The inhibition at 30 mg/kg was 44.7%.

Q: What about the inhibition at 30 mg/kg ([1]; H2122 xenograft, 30 mg/kg single dose, 24 hr, read-out: % Inhibition pMEK) of the same molecule?
A: Its inhibition at 30 mg/kg is -15.5%.

Q: What about the inhibition at 100 mg/kg ([1]; H2122 xenograft, 100 mg/kg single dose, 4 hr) of the same molecule?
A: Its inhibition at 100 mg/kg is 79.7%.

Q: What about the inhibition at 30 mg/kg ([1]; read-out: pMEK inhibition) of the same molecule?
A: The inhibition at 30 mg/kg was 45 to 78%.

Q: What about the IC50 (LU-99; [2]) of the same molecule?
A: Its IC50 is 1.57 µM.

Q: And the IC50 (LU-99; [3])?
A: Its IC50 is 0.659 µM.

Q: And the “Tumor Growth Inhibition (%) or Regression (−%)” value (shortened to “Tumor Growth Inhibition … (−%)”) (EL3187 (PDX); 5 mg/kg BID)?
A: The value was −65%.

Q: And the “Tumor Growth Inhibition … (−%)” value (EL3187 (PDX); 5 mg/kg QD)?
A: Its value is 94%.

Q: And the “Tumor Growth Inhibition … (−%)” value (EL3187 (PDX); 15 mg/kg BID)?
A: The value was −80%.

Q: What about the “Tumor Growth Inhibition … (−%)” value (EL3187 (PDX); 15 mg/kg QD) of the same molecule?
A: The value was −75%.

Q: And the “Tumor Growth Inhibition … (−%)” value (EL3187 (PDX); 30 mg/kg BID, 30 mg/kg)?
A: The value was −100% and −92.5%.

Q: What about the “Tumor Growth Inhibition … (−%)” value (EL3187 (PDX); 100 mg/kg BID) of the same molecule?
A: Its value is −100%.

Q: And the “Tumor Growth Inhibition … (−%)” value (EL3187 (PDX); 100 mg/kg QD)?
A: The value was −100%.

Q: And the “In Vivo Anti-Tumor Activities” value (EL3187 (PDX); EL3187 Lung PDX, Example 1 5 mg/kg QDx28)?
A: The value was 94.8.

Q: What about the IC50 (H23; [2]) of the same molecule?
A: The IC50 was 0.08 µM.

Q: What about the IC50 (H23; [3]) of the same molecule?
A: Its IC50 is 0.031 µM.

Q: What about the “Tumor Growth Inhibition … (−%)” value (SW1463 xenograft; 15 mg/kg BID) of the same molecule?
A: The value was −27%.

Q: And the “Tumor Growth Inhibition … (−%)” value (SW1463 xenograft; 30 mg/kg BID)?
A: Its value is −47.9%.

Q: What about the “Tumor Growth Inhibition … (−%)” value (SW1463 xenograft; 30 mg/kg QD) of the same molecule?
A: Its value is −13.9%.

Q: What about the “In Vivo Anti-Tumor Activities” value (SW1463 xenograft; Example 1 30 mg/kg QDx28) of the same molecule?
A: The value was −21.4.

Q: What about the IC50 (H358; [2]) of the same molecule?
A: The IC50 was 0.041 µM.

Q: And the IC50 (H358; [3])?
A: The IC50 was 0.026 µM.

Q: And the IC50 (H460; [2])?
A: Its IC50 is 11.6 µM.

Q: What about the IC50 (H460; [3]) of the same molecule?
A: The IC50 was 6.07 µM.

Q: And the “Tumor Growth Inhibition … (−%)” value (H1373 xenograft; 15 mg/kg BID)?
A: Its value is −60%.

Q: What about the “Tumor Growth Inhibition … (−%)” value (H1373 xenograft; 30 mg/kg BID) of the same molecule?
A: The value was −71.6%.

Q: And the “Tumor Growth Inhibition … (−%)” value (H1373 xenograft; 30 mg/kg QD)?
A: Its value is −52.4%.
